Assay results: patent US5656654A, “Arylidene and heteroarylidene oxindole derivatives and process for their preparation” (Farmitalia Carlo Erba S.r.l., priority 1993, dated 1997)

What was measured:
p45 v-abl kinase = molecular target: T1, p45 v-abl kinase (Abelson murine leukemia virus, UniProt P00521); assay: p45 v-abl Kinase Assay ((Val^5)-Angiotensin II phosphorylation, in vitro); type: biochemical
T1 construct: by cited methods bacterially expressed (E. coli)
Experimental: p45 v-abl kinase purification. The enzyme used in our test was the p45 v-abl tyrosine kinase which represents the catalytic domain of the Abelson tyrosine kinase (isolated from the Abelson murine leukemia virus). The p45 v-abl kinase was produced and isolated as described by Wang et al. in J. Biol. Chem. 260, 64 (1985) and by Ferguson et al. in J. Biol. Chem. 260, 3652 (1985) and in Biochem. J. 257, 321 (1989).
p45 v-abl Kinase Assay. (Val^5)-Angiotensin II phosphorylation was performed by incubation with 40 ng of purified abl-kinase and (γ-^32 P)-ATP, in 50 μl of buffer containing Tris-HCl 25 mM, pH 8.0, MgCl2 10 mM and dithiothreitol 0.1 mM (kinase buffer). The reaction mixture was incubated for the indicated time at 30° C. and the reaction stopped by adding 50 μl of 5% trichloroacetic acid. After a brief incubation on ice, tubes were centrifuged. The supernatants were spotted on phosphocellulose paper squares (Whatman P-81) and washed extensively in acetic acid. The radioactivity bound to dried phosphocellulose squares was measured in a liquid scintillation counter. IC50 values were calculated from triplicate determinations of each experimental point. Each inhibitor was tested at concentrations ranging from […] in the presence of fixed concentrations of peptide (2 mM) and ATP (50 μM).
(§1) The inhibitory activity data for a representative group of compounds according to the present invention, obtained both in the in vitro p45 v-abl kinase assay and in the in vivo human chronic myeloid leukemia K 562 cell growth inhibition assay described above, are set out in following Table 1.

[1] = test system: K562 cells (human chronic myeloid leukemia); assay: K562 cell growth inhibition assay ([^3-H]-Thymidine, headed In Vivo ASSAY); type: cell-based; settings: K562 cells in suspension, 66 h, with or without 10% foetal calf serum
Experimental: K562 cell growth inhibition assay. 1 ml of K562 cells, grown in suspension, were incubated for 66 h with or without 10% foetal calf serum in the presence of 1 μCi of [^3 -H]-Thymidine. Cells were harvested, washed three times in cold PBS and treated with 5% trichloroacetic acid for 5 min on ice. After a wash in ethanol: ether 2:1, the DNA was extracted by 0.5N NaOH for 2 h at room temperature. The extract was counted in a liquid scintillation counter.
as §1

T1 sequence (P00521 whole entry): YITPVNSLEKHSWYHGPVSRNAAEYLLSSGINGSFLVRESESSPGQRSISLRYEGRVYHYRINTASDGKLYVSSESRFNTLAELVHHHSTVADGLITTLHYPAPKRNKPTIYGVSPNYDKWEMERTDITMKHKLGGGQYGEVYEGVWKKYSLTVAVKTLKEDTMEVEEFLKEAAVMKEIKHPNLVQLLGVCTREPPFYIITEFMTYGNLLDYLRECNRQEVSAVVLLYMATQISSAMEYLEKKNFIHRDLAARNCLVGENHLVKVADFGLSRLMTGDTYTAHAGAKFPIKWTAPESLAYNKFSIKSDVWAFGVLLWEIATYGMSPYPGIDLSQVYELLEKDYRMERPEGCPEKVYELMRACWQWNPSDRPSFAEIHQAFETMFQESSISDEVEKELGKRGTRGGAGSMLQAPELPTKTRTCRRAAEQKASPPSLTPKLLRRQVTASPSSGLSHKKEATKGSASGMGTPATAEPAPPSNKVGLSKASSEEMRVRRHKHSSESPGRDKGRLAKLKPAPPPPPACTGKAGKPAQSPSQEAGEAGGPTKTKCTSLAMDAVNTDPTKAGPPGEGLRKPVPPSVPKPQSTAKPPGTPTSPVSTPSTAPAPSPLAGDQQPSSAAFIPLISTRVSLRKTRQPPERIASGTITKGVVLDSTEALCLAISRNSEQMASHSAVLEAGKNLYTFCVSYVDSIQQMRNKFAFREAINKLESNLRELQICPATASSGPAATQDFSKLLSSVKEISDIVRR

| SMILES | IC50 (p45 v-abl kinase) | IC50 [1] |
| --- | --- | --- |
| Nc1ccc2c(c1)C(=Cc1ccc(O)c3ncccc13)C(=O)N2 [FCE 27518, 5-amino-3-[(8'-hydroxy-5'-quinolyl)methylene]-2-oxindole] | 6.9 µM | 1.2 µM |
| COc1ccc2[nH]cc(C=C3C(=O)Nc4ccccc43)c2c1 [FCE 27564, 3-[(5'-methoxy-3'-indolyl)methylene]-2-oxindole] | 0.8 µM | 4.15 µM |
| N#Cc1ccc2[nH]cc(C=C3C(=O)Nc4ccccc43)c2c1 [FCE 27565, 3-[(5'-cyano-3'-indolyl)methylene]-2-oxindole] | 2.4 µM |  |
| Cc1[nH]c2ccccc2c1C=C1C(=O)Nc2ccccc21 [FCE 27566, 3-[(2'-methyl-3'-indolyl)methylene]-2-oxindole] | 15.6 µM | 2.2 µM |
| O=C1Nc2ccccc2C1=Cc1c[nH]c2ccc(O)cc12 [FCE 27866, 3-[(5'-hydroxy-3'-indolyl)methylene]-2-oxindole] | 5.2 µM | 8.75 µM |
| O=C1Nc2ccc(Br)cc2C1=Cc1ccc(O)c2ncccc12 [FCE 27996, 5-bromo-3-[(8'-hydroxy-5'-quinolyl)methylene]-2-oxindole] | 2.6 µM | 0.62 µM |
| O=C1Nc2ccc(O)cc2C1=Cc1ccc(O)c2c1CCCC2 [FCE 28337, 5-hydroxy-3-[(4'-hydroxy-1'-tetralyl)methylene]-2-oxindole] | 2.32 µM | 11.5 µM |
| COc1ccc2[nH]cc(C=C3C(=O)Nc4ccc(O)cc43)c2c1 [FCE 28359, 5-hydroxy-3-[(5'-methoxy-3'-indolyl)methylene]-2-oxindole] | 0.39 µM | 8.15 µM |
| Nc1ccc2c(c1)C(=Cc1cc(O)c3c(c1O)CCCC3)C(=O)N2 [FCE 28360, 5-amino-3-[(1',4'-dihydroxy-2'-tetralyl)methylene]-2-oxindole] | 4.7 µM | 6.25 µM |
| COc1ccc2[nH]cc(C=C3C(=O)Nc4ccc(N)cc43)c2c1 [FCE 28436, 5-amino-3-[(5'-methoxy-3'-indolyl)methylene]-2-oxindole] | 0.305 µM | 14.5 µM |
